Legend:
Capivasertib = compound: C1CN(CCC1(C(=O)N[C@@H](CCO)C2=CC=C(C=C2)Cl)N)C3=NC=NC4=C3C=CN4 [Capivasertib]; settings: max 10 µM
Method in brief: (§1)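 Cancer cell lines were seeded in 1536-well plates in 7.5 μl DMEM/F12 or RPMI with 10% FBS, held 24 hours at 37°C and 5% CO2, then dosed for 72 hours (final DMSO typically 0.2%). Viability was read by CellTiter-Glo 2.0 luminescence and scaled between blank-well and DMSO-well means. The single-agent IC50 comes from dose responses fitted to a two-parameter logistic curve with a non-linear mixed effects model.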

AZD1775 = compound: C=CCn1c(=O)c2cnc(Nc3ccc(N4CCN(C)CC4)cc3)nc2n1-c1cccc(C(C)(C)O)n1 [AZD1775]
Method in brief: as §1

Trametinib = compound: CC(=O)Nc1cccc(-n2c(=O)n(C3CC3)c(=O)c3c(Nc4ccc(I)cc4F)n(C)c(=O)c(C)c32)c1 [Trametinib]; settings: max 1 µM
Method in brief: as §1

Palbociclib = compound: CC(=O)c1c(C)c2cnc(Nc3ccc(N4CCNCC4)cn3)nc2n(C2CCCC2)c1=O [Palbociclib]; settings: max 10 µM
Method in brief: as §1

AZD1390 = compound: CC(C)n1c(=O)n(C)c2cnc3cc(F)c(-c4ccc(OCCCN5CCCCC5)nc4)cc3c21 [AZD1390]; settings: max 0.3 µM
Method in brief: as §1

Venetoclax = compound: CC1(C)CCC(CN2CCN(c3ccc(C(=O)NS(=O)(=O)c4ccc(NCC5CCOCC5)c([N+](=O)[O-])c4)c(Oc4cnc5[nH]ccc5c4)c3)CC2)=C(c2ccc(Cl)cc2)C1 [Venetoclax]; settings: max 1 µM
Method in brief: as §1

Dasatinib = compound: CC1=C(C(=CC=C1)Cl)NC(=O)C2=CN=C(S2)NC3=CC(=NC(=N3)C)N4CCN(CC4)CCO [Dasatinib]; settings: max 2 µM
Method in brief: as §1

SG3199 = compound: CC1=CN2[C@@H](C1)C=NC3=CC(=C(C=C3C2=O)OC)OCCCCCOC4=C(C=C5C(=C4)N=C[C@@H]6CC(=CN6C5=O)C)OC [SG3199]; settings: max 0.001 µM
Method in brief: as §1

AZD2811 = compound: CCN(CCO)CCCOc1ccc2c(Nc3cc(CC(=O)Nc4cccc(F)c4)[nH]n3)ncnc2c1 [AZD2811]; settings: max 1 µM
Method in brief: as §1

SN-38 = compound: CCc1c2c(nc3ccc(O)cc13)-c1cc3c(c(=O)n1C2)COC(=O)[C@]3(O)CC [SN-38]; settings: max 0.3 µM
Method in brief: as §1

AZD0156 = compound: CN(C)CCCOc1ccc(-c2ccc3ncc4c(c3c2)n(C2CCOCC2)c(=O)n4C)cn1 [AZD0156]
Method in brief: as §1

AZD4320 = compound: CN(CC[C@H](CSC1=CC=CC=C1)NC2=C(C=C(C=C2)S(=O)(=O)NC(=O)C3=CC=C(C=C3)N4CCC(CC4)[C@H](C5=CC=CC=C5C6=CC=C(C=C6)Cl)O)S(=O)(=O)C(F)(F)F)CCO [AZD4320]; settings: max 1 µM
Method in brief: as §1

Alisertib = compound: COc1cc(Nc2ncc3c(n2)-c2ccc(Cl)cc2C(c2c(F)cccc2OC)=NC3)ccc1C(=O)O [Alisertib]; settings: max 10 µM
Method in brief: as §1

Gefitinib = compound: COc1cc2ncnc(Nc3ccc(F)c(Cl)c3)c2cc1OCCCN1CCOCC1 [Gefitinib]; settings: max 10 µM
Method in brief: as §1

Prexasertib = compound: COc1cccc(OCCCN)c1-c1cc(Nc2cnc(C#N)cn2)n[nH]1 [Prexasertib]; settings: max 1 µM
Method in brief: as §1

Doxorubicin = compound: COc1cccc2c1C(=O)c1c(O)c3c(c(O)c1C2=O)C[C@@](O)(C(=O)CO)C[C@@H]3O[C@H]1C[C@H](N)[C@H](O)[C@H](C)O1 [Doxorubicin]; settings: max 1 µM
Method in brief: as §1

AZD5153 = compound: COc1nnc2ccc(N3CCC(c4ccc(OCCN5CCN(C)C(=O)[C@H]5C)cc4)CC3)nn12 [AZD5153]; settings: max 1 µM
Method in brief: as §1

Lapatinib = compound: CS(=O)(=O)CCNCc1ccc(-c2ccc3ncnc(Nc4ccc(OCc5cccc(F)c5)c(Cl)c4)c3c2)o1 [Lapatinib]; settings: max 10 µM
Method in brief: as §1

AZD8186 = compound: C[C@@H](Nc1cc(F)cc(F)c1)c1cc(C(=O)N(C)C)cc2c(=O)cc(N3CCOCC3)oc12 [AZD8186]
Method in brief: as §1

Crizotinib = compound: C[C@@H](Oc1cc(-c2cnn(C3CCNCC3)c2)cnc1N)c1c(Cl)ccc(F)c1Cl [Crizotinib]; settings: max 10 µM
Method in brief: as §1

Savolitinib = compound: C[C@@H](c1ccc2nccn2c1)n1nnc2ncc(-c3cnn(C)c3)nc21 [Savolitinib]; settings: max 1 µM
Method in brief: as §1

AZD6738 = compound: C[C@@H]1COCCN1C2=NC(=NC(=C2)C3(CC3)[S@](=N)(=O)C)C4=C5C=CNC5=NC=C4 [AZD6738]; settings: max 10 µM
Method in brief: as §1

AZD5991 = compound: Cc1c2c(nn1C)CSCc1cc(n(C)n1)CSc1cc(c3ccccc3c1)OCCCc1c(C(=O)O)n(C)c3c-2c(Cl)ccc13 [AZD5991]; settings: max 1 µM
Method in brief: as §1

AZD7648 = compound: Cc1cc2ncnn2cc1Nc1ncc2c(n1)n(C1CCOCC1)c(=O)n2C [AZD7648]; settings: max 10 µM
Method in brief: as §1

Taselisib = compound: Cc1nc(-c2cn3c(n2)-c2ccc(-c4cnn(C(C)(C)C(N)=O)c4)cc2OCC3)n(C(C)C)n1 [Taselisib]; settings: max 10 µM
Method in brief: as §1

Selumetinib = compound: Cn1cnc2c(F)c(Nc3ccc(Br)cc3Cl)c(C(=O)NOCCO)cc21 [Selumetinib]; settings: max 10 µM
Method in brief: as §1

MK-2206 = compound: NC1(c2ccc(-c3nc4ccn5c(=O)[nH]nc5c4cc3-c3ccccc3)cc2)CCC1 [MK-2206]; settings: max 10 µM
Method in brief: as §1

Olaparib = compound: O=C(c1cc(Cc2n[nH]c(=O)c3ccccc23)ccc1F)N1CCN(C(=O)C2CC2)CC1 [Olaparib]; settings: max 10 µM
Method in brief: as §1

Carboplatin = compound: C1CC(C1)(C(=O)[O-])C(=O)[O-].N.N.[Pt+2] [Carboplatin]; settings: max 10 µM
Method in brief: as §1

AZD5363 = compound: C1CN(CCC1(C(=O)N[C@@H](CCO)C2=CC=C(C=C2)Cl)N)C3=NC=NC4=C3C=CN4 [AZD5363]; settings: max 10 µM
Method in brief: as §1

Paclitaxel = compound: CC(=O)O[C@H]1C(=O)[C@@]2(C)[C@H]([C@H](OC(=O)c3ccccc3)[C@]3(O)C[C@H](OC(=O)[C@H](O)[C@@H](NC(=O)c4ccccc4)c4ccccc4)C(C)=C1C3(C)C)[C@]1(OC(C)=O)CO[C@@H]1C[C@@H]2O [Paclitaxel]; settings: max 3 µM
Method in brief: as §1

Etoposide = compound: COc1cc([C@@H]2c3cc4c(cc3[C@@H](O[C@@H]3O[C@@H]5CO[C@@H](C)O[C@H]5[C@H](O)[C@H]3O)[C@H]3COC(=O)[C@H]23)OCO4)cc(OC)c1O [Etoposide]; settings: max 10 µM
Method in brief: as §1

SRA737 = compound: N#Cc1cnc(Nc2cc(NC[C@H]3CNCCO3)c(C(F)(F)F)cn2)cn1 [SRA737]; settings: max 10 µM
Method in brief: as §1

[1] = compound: O=C(Nc1ccc2[nH]nc(-c3ccncc3)c2c1)[C@@H]1CCN(CC(=O)N2CCN(c3ccc(-c4ncccn4)cc3)CC2)C1; settings: max 5 µM
Method in brief: as §1

5-Fluorouracil = compound: O=c1[nH]cc(F)c(=O)[nH]1 [5-Fluorouracil]; settings: max 20 µM
Method in brief: as §1

Cell Line | IC50, cell viability 72 h (Capivasertib) [nM] | IC50, cell viability 72 h (AZD1775; max 3 µM) [nM] | IC50, cell viability 72 h (Trametinib) [nM] | IC50, cell viability 72 h (Palbociclib) [nM] | IC50, cell viability 72 h (AZD1390) [nM] | IC50, cell viability 72 h (Venetoclax) [nM] | IC50, cell viability 72 h (Dasatinib) [nM] | IC50, cell viability 72 h (SG3199) [nM] | IC50, cell viability 72 h (AZD2811) [nM] | IC50, cell viability 72 h (SN-38) [nM] | IC50, cell viability 72 h (AZD0156; max 3 µM) [nM] | IC50, cell viability 72 h (AZD4320) [nM] | IC50, cell viability 72 h (Alisertib) [nM] | IC50, cell viability 72 h (Gefitinib) [nM] | IC50, cell viability 72 h (Prexasertib) [nM] | IC50, cell viability 72 h (Doxorubicin) [nM] | IC50, cell viability 72 h (AZD5153) [nM] | IC50, cell viability 72 h (Lapatinib) [nM] | IC50, cell viability 72 h (AZD8186; max 3 µM) [nM] | IC50, cell viability 72 h (Crizotinib) [nM] | IC50, cell viability 72 h (Savolitinib) [nM] | IC50, cell viability 72 h (AZD6738) [nM] | IC50, cell viability 72 h (AZD5991) [nM] | IC50, cell viability 72 h (AZD7648) [nM] | IC50, cell viability 72 h (Taselisib) [nM] | IC50, cell viability 72 h (Selumetinib) [nM] | IC50, cell viability 72 h (MK-2206) [nM] | IC50, cell viability 72 h (Olaparib) [nM] | IC50, cell viability 72 h (Carboplatin) [nM] | IC50, cell viability 72 h (AZD5363) [nM] | IC50, cell viability 72 h (AZD1775; max 1 µM) [nM] | IC50, cell viability 72 h (Paclitaxel) [nM] | IC50, cell viability 72 h (AZD0156; max 1 µM) [nM] | IC50, cell viability 72 h (Etoposide) [nM] | IC50, cell viability 72 h (AZD8186; max 10 µM) [nM] | IC50, cell viability 72 h (SRA737) [nM] | IC50, cell viability 72 h [1] [nM] | IC50, cell viability 72 h (5-Fluorouracil) [nM]
DU-4475 (Breast Carcinoma) | > 10000 | 437 | 1.18 | > 10000 | > 300 | > 1000 | > 2000 | > 1 | > 1000 | 1.93 | > 3000 | 93.5 | 543 | > 10000 | 86.4 | 32.3 | 210 | 6760 | > 3000 | 3780 | > 1000 | 1700 | > 1000 | > 10000 | > 10000 | 55.6 | > 10000 | 5190 | – | – | – | – | – | – | – | – | – | –
HCC1428 (Breast Carcinoma) | > 10000 | > 3000 | > 1000 | > 10000 | > 300 | > 1000 | > 2000 | > 1 | > 1000 | > 300 | > 3000 | > 1000 | > 10000 | > 10000 | > 1000 | > 1000 | 483 | > 10000 | > 3000 | > 10000 | > 1000 | > 10000 | 67.7 | > 10000 | > 10000 | > 10000 | > 10000 | > 10000 | – | – | – | – | – | – | – | – | – | –
KP-N-YN (Neuroblastoma) | – | – | > 1000 | > 10000 | > 300 | 344 | > 2000 | > 1 | 402 | 35 | – | 49.2 | 1090 | > 10000 | 5.36 | 749 | > 1000 | > 10000 | – | > 10000 | > 1000 | 751 | > 1000 | > 10000 | 5580 | > 10000 | > 10000 | > 10000 | > 10000 | > 10000 | 307 | 110 | > 1000 | > 10000 | > 10000 | 751 | > 5000 | > 20000
